Source: ChEMBL document CHEMBL1124754, “Hypoxia-selective antitumor agents. 4. Relationships between structure, physicochemical properties, and hypoxia-selective cytotoxicity for nitracrine analogues with varying side chains: the "iminoacridan hypothesis"” (J Med Chem, 1990)

Columns and labels:
[1] = IC50 (air/N2) ratio of the drug to reduce cell numbers to 50 percent of controls using AA8 cells in the microassay; format: functional, Cricetulus griseus, CHO-AA8
[2] = Hypersensitivity factor, IC50 (AA8) air /IC50 (UV4) in air; format: functional
[3] = Acridine pKa values were determined in aqueous solution at 25 degrees Centigrade by spectrophotometric method.; format: physicochemical
[4] = Hypersensitivity factor, IC50 (AA8) air /IC50 (UV4) in N2; format: functional
[5] = CT10 (air/N2) ratio of the product of the drug concentration to the exposure time needed to reduce cell survival to 10% of controls using AA8 cells at 10 E 6 /mL in the clonogenic assay; format: functional, Cricetulus griseus, CHO-AA8
[6] = Tested for the concentration of the drug to reduce cell numbers to 50 percent of controls against AA8 cells in the microassay; format: functional, cell-based, Cricetulus griseus; conditions: cho-aa8
[7] = Tested for the product of the drug concentration to the exposure time needed to reduce cell survival to 10% of controls using AA8 cells at 10 E 6 /mL in the clonogenic assay; format: functional, Cricetulus griseus, CHO-AA8
[8] = CT10 (air/N2) ratio of the product of the drug concentration to the exposure time needed to reduce cell survival to 10% of controls using AA8 cells at 10 E 6 /mL in the clonogenic assay; range is 0.8-1.5; format: functional, Cricetulus griseus, CHO-AA8
[9] = CT10 (air/N2) ratio of the product of the drug concentration to the exposure time needed to reduce cell survival to 10% of controls using AA8 cells at 10 E 6 /mL in the clonogenic assay; range is 1-2; format: functional, Cricetulus griseus, CHO-AA8

| IC50 ratio [1] | pKa [3] | IC50 [6] [µM] | SMILES | HF [2] | HF [4] | CT10 ratio [5] | CT10 [7] [µM·h] | CT10 ratio [8] | CT10 ratio [9] |
| --- | --- | --- | --- | --- | --- | --- | --- | --- | --- |
| 1.42 | 7.2 | 0.032 | CCCNc1c2ccccc2nc2cccc([N+](=O)[O-])c12 | 11 | 20 | 3.4 | 0.62 |  |  |
| 4.2 |  | 18 | O=C(O)CCCNc1c2ccccc2nc2cccc([N+](=O)[O-])c12 | 6.1 | 6.6 | 2.5 | 50 |  |  |
| 1.3 | 7.2 | 0.0038 | CNc1c2ccccc2nc2cccc([N+](=O)[O-])c12 | 11 | 11 |  | 0.01 | 1.5 |  |
| 1.45 | 7.55 | 0.027 | O=[N+]([O-])c1cccc2nc3ccccc3c(NCCCO)c12 | 15 | 13 | 3 | 0.43 |  |  |
| 1.2 | 7.4 | 0.38 | O=[N+]([O-])c1cccc2nc3ccccc3c(NCc3ccccc3)c12 | 12 | 17 | 1.9 | 9 |  |  |
| 1.65 | 7.4 | 0.0155 | CN(C)CCCCCNc1c2ccccc2nc2cccc([N+](=O)[O-])c12 |  |  | 7 | 0.32 |  |  |
| 1.13 | 7.4 | 0.12 | CC(C)CCNc1c2ccccc2nc2cccc([N+](=O)[O-])c12 | 12 | 16 | 2.4 | 3.2 |  |  |
| 3.5 | 6.2 | 0.0263 | CN(C)CCCNc1c2ccccc2nc2cccc([N+](=O)[O-])c12 [NITRACRINE] | 12.9 | 14.9 | 9.9 | 0.47 |  |  |
| 4.8 | 6.2 | 0.034 | CNCCCNc1c2ccccc2nc2cccc([N+](=O)[O-])c12 | 14 | 11 | 5.9 | 0.38 |  |  |
| 1.02 | 7.3 | 3.6 | Nc1c2ccccc2nc2cccc([N+](=O)[O-])c12 | 4.5 | 5.8 |  | 3.9 |  | 2 |
| 2.6 | 6.9 | 0.026 | CN(C)CCCCNc1c2ccccc2nc2cccc([N+](=O)[O-])c12 | 20 | 29 | 11.9 | 0.46 |  |  |
| 7.4 | 4.9 | 0.047 | CN(C)CCNc1c2ccccc2nc2cccc([N+](=O)[O-])c12 | 19 | 15 | 14 | 1.22 |  |  |
| 1.55 | 7.4 | 0.0115 | CN(C)CCCCCCNc1c2ccccc2nc2cccc([N+](=O)[O-])c12 |  |  | 6.8 | 0.38 |  |  |
| 1.1 | 7.2 | 0.0115 | O=[N+]([O-])c1cccc2nc3ccccc3c(NCCO)c12 | 15 | 18 | 3.2 | 0.13 |  |  |
| 1.3 | 7.4 | 0.122 | O=[N+]([O-])c1cccc2nc3ccccc3c(NCCc3ccccc3)c12 | 14 | 15 | 2.3 | 2.8 |  |  |
